Target: T1, Human A2a Adenosine Receptor (Homo sapiens, UniProt P29274)
T1 construct: purchased Receptor Biology, Inc., Beltsville, Md; RB-HA2a
Test: Human adenosine A2a receptor competition binding assay
Conditions: [3H]-SCH 58261 displacement, human A2a membranes
Procedure: Human Adenosine A2a and A1 Receptor Competition Binding Assay Protocol
• A2a: Human A2a Adenosine Receptor membranes, Catalog #RB-HA2a, Receptor Biology, Inc., Beltsville, Md. Dilute to 17 μg/100 μl in membrane dilution buffer (see below). Assay Buffers • Membrane dilution buffer: Dulbecco's Phosphate Buffered Saline (Gibco/BRL)+10 mM MgCl2. • Compound Dilution Buffer: Dulbecco's Phosphate Buffered Saline (Gibco/BRL)+10 mM MgCl2 supplemented with 1.6 mg/ml methyl cellulose and 16% DMSO. Prepared fresh daily. Ligands • A2a: [3H]-SCH 58261, custom synthesis, AmershamPharmacia Biotech, Piscataway, N.J. Stock is prepared at 1 nM in membrane dilution buffer. Final assay concentration is 0.5 nM. • A1: [3H]-DPCPX, AmershamPharmacia Biotech, Piscataway, N.J. Stock is prepared at 2 nM in membrane dilution buffer. Final assay concentration is 1 nM. Non-specific Binding • A2a: To determine non-specific binding, add 100 nM CGS 15923 (RBI, Natick, Mass.). Working stock is prepared at 400 nM in compound dilution buffer. • A1: To determine non-specific binding, add 100 μM NECA (RBI, Natick, Mass.). Working stock is prepared at 400 μM in compound dilution buffer. Compound Dilution • Prepare 1 mM stock solutions of compounds in 100% DMSO. Dilute in compound dilution buffer. Test at 10 concentrations ranging from […] to 30 μM. Prepare working solutions at 4× final concentration in compound dilution buffer. […]

T1 sequence (P29274 whole entry): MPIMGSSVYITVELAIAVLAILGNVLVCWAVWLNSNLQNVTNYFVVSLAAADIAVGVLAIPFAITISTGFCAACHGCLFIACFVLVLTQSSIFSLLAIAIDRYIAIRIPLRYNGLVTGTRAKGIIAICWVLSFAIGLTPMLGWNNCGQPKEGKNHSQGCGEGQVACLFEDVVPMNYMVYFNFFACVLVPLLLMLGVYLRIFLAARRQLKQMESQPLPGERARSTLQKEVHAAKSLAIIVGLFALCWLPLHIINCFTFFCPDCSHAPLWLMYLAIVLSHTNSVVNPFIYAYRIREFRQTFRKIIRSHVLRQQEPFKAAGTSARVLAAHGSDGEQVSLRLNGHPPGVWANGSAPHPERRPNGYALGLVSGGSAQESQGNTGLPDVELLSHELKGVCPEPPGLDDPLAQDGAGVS

Structure (SMILES) | Ki [nM]
CC#Cc1nc2c3cnn(CCN4CCN(c5ccc(F)cc5F)CC4)c3nc(N)n2n1 [Example 1-17] | 2.2
CC#Cc1nc2c3cnn(CCN4CCN(c5ccc(OCCOC)cc5F)CC4)c3nc(N)n2n1 [Example 5-4] | 2.3

From US6897217B2, “2-Alkynyl-and 2-alkenyl-pyrazolo-[4,3-e]-1,2,4-triazolo-[1,5-c]-pyrimidine adenosine A2a receptor antagonists” (Schering Corporation, priority 2003, dated 2005)
